ChEMBL document CHEMBL2073754, “Cotransport of reduced glutathione with bile salts by MRP4 (ABCC4) localized to the basolateral hepatocyte membrane” (Hepatology, 2003)

Experiments:
Type in all cases: functional, cell membranes, Membrane vesicle
Set-up in all cases: scale not given: the % may be the effect or the level left
MRP4 (ABCC4) [1] = target: T1, MRP4 (ABCC4) (Homo sapiens, UniProt O15439); experiment: TP_TRANSPORTER: inhibition of Taurocholate uptake in the presence of Dipyridamole at a concentration of 20uM in membrane vesicles from MRP4-expressing V79 cells; settings: hamster, probe taurocholate, read-out: Activity
T1 sequence (O15439 whole entry): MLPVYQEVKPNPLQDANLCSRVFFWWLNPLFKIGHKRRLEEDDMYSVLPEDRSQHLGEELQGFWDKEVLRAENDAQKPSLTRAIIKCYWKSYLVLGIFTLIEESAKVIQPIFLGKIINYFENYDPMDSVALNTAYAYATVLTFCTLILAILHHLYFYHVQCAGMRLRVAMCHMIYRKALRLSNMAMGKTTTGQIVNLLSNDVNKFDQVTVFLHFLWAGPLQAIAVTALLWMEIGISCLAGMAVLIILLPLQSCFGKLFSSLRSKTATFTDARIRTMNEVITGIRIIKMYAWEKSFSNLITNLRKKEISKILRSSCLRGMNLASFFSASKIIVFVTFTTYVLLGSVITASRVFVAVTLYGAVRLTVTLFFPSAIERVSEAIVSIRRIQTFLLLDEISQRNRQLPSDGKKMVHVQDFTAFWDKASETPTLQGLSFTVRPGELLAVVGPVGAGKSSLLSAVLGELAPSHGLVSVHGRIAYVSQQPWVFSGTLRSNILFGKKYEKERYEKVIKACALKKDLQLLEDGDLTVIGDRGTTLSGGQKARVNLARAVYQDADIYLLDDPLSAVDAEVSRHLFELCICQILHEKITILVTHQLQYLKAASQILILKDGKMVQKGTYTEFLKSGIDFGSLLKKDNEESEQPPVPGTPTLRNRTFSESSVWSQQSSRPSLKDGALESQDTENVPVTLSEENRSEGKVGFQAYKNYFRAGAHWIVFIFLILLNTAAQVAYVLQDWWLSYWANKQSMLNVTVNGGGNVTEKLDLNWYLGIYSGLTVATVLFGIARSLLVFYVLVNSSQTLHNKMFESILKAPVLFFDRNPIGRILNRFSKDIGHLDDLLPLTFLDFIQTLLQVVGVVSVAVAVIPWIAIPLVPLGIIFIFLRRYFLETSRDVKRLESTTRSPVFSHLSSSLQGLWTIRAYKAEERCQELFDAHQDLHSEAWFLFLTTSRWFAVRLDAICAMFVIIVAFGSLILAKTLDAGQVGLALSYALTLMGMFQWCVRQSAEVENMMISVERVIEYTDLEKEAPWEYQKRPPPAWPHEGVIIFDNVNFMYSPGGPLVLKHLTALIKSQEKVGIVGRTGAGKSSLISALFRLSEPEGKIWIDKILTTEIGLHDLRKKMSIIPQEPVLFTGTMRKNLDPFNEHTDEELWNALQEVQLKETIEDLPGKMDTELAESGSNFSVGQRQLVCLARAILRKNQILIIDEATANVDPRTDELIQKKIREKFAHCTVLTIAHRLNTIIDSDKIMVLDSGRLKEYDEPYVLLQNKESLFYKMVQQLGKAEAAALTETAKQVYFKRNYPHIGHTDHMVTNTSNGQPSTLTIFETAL

MRP4 (ABCC4) [2] = target: T1, MRP4 (ABCC4); experiment: TP_TRANSPORTER: inhibition of Taurocholate uptake in the presence of Folate at a concentration of 20uM in membrane vesicles from MRP4-expressing V79 cells; settings: hamster, probe taurocholate, read-out: Activity
MRP4 (ABCC4) [3] = target: T1, MRP4 (ABCC4); experiment: TP_TRANSPORTER: inhibition of Taurocholate uptake in the presence of Glycocholate at a concentration of 20uM in membrane vesicles from MRP4-expressing V79 cells; settings: hamster, probe taurocholate, read-out: Activity
[4] = target: T2, ATP-binding cassette sub-family C member 4 (Homo sapiens, UniProt O15439); experiment: TP_TRANSPORTER: inhibition of Taurocholate uptake in the presence of Lithocholate at a concentration of 20uM in membrane vesicles from MRP4-expressing V79 cells; settings: hamster, v79, 20 µM
T2 sequence (O15439 whole entry): T1 sequence (O15439 whole entry)

MRP4 (ABCC4) [5] = target: T1, MRP4 (ABCC4); experiment: TP_TRANSPORTER: inhibition of Taurocholate uptake in the presence of Lithoglycocholate at a concentration of 20uM in membrane vesicles from MRP4-expressing V79 cells; settings: hamster, probe taurocholate, read-out: Activity
MRP4 (ABCC4) [6] = target: T1, MRP4 (ABCC4); experiment: TP_TRANSPORTER: inhibition of Taurocholate uptake in the presence of Methotrexate at a concentration of 20uM in membrane vesicles from MRP4-expressing V79 cells; settings: hamster, probe taurocholate, read-out: Activity
[7] = target: T2, ATP-binding cassette sub-family C member 4; experiment: TP_TRANSPORTER: inhibition of Taurocholate uptake in the presence of MK-571 at a concentration of 20uM in membrane vesicles from MRP4-expressing V79 cells; settings: hamster, v79, 20 µM
MRP4 (ABCC4) [8] = target: T1, MRP4 (ABCC4); experiment: TP_TRANSPORTER: inhibition of Taurocholate uptake in the presence of Dehydroepiandrosterone-3-sulfate at a concentration of 5uM in membrane vesicles from MRP4-expressing V79 cells; settings: hamster, probe taurocholate, read-out: Activity
[9] = target: T2, ATP-binding cassette sub-family C member 4; experiment: TP_TRANSPORTER: inhibition of Taurocholate uptake in the presence of Probenecid at a concentration of 20uM in membrane vesicles from MRP4-expressing V79 cells; settings: hamster, v79, 20 µM
MRP4 (ABCC4) [10] = target: T1, MRP4 (ABCC4); experiment: TP_TRANSPORTER: inhibition of Taurocholate uptake by Taurochenodeoxycholate at a concentration of 20uM in membrane vesicles from MRP4-expressing V79 cells; settings: hamster, probe taurocholate, read-out: Activity
MRP4 (ABCC4) [11] = target: T1, MRP4 (ABCC4); experiment: TP_TRANSPORTER: inhibition of Taurocholate uptake in the presence of Tauroursodeoxycholate at a concentration of 20uM in membrane vesicles from MRP4-expressing V79 cells; settings: hamster, probe taurocholate, read-out: Activity
MRP4 (ABCC4) [12] = target: T1, MRP4 (ABCC4); experiment: TP_TRANSPORTER: inhibition of Taurocholate uptake in the presence of Ursodeoxycholate at a concentration of 20uM in membrane vesicles from MRP4-expressing V79 cells; settings: hamster, probe taurocholate, read-out: Activity

## OCCN(CCO)c1nc(N2CCCCC2)c2nc(N(CCO)CCO)nc(N3CCCCC3)c2n1 [DIPYRIDAMOLE]
MRP4 (ABCC4) [1]
  activity at 20 µM: 32%

## Nc1nc2ncc(CNc3ccc(C(=O)N[C@@H](CCC(=O)O)C(=O)O)cc3)nc2c(=O)[nH]1 [FOLIC ACID]
MRP4 (ABCC4) [2]
  activity at 20 µM: 63%

## C[C@H](CCC(=O)NCC(=O)O)[C@H]1CC[C@H]2[C@@H]3[C@H](O)C[C@@H]4C[C@H](O)CC[C@]4(C)[C@H]3C[C@H](O)[C@]12C [GLYCOCHOLIC ACID]
MRP4 (ABCC4) [3]
  activity at 20 µM: 45%

## C[C@H](CCC(=O)O)[C@H]1CC[C@H]2[C@@H]3CC[C@@H]4C[C@H](O)CC[C@]4(C)[C@H]3CC[C@]12C [LITHOCHOLIC ACID]
[4]
  Activity: 68%

## C[C@H](CCC(=O)NCC(=O)O)[C@H]1CC[C@H]2[C@@H]3CC[C@@H]4C[C@H](O)CC[C@]4(C)[C@H]3CC[C@]12C [LITHOGLYCOCHOLATE]
MRP4 (ABCC4) [5]
  activity at 20 µM: 9%

## CN(Cc1cnc2nc(N)nc(N)c2n1)c1ccc(C(=O)N[C@@H](CCC(=O)O)C(=O)O)cc1 [METHOTREXATE]
MRP4 (ABCC4) [6]
  activity at 20 µM: 39%

## CN(C)C(=O)CCSC(SCCC(=O)O)c1cccc(/C=C/c2ccc3ccc(Cl)cc3n2)c1 (configuration not stated) [MK-571]
[7]
  Activity: 9%

## C[C@]12CC[C@H](OS(=O)(=O)O)CC1=CC[C@@H]1[C@@H]2CC[C@]2(C)C(=O)CC[C@@H]12 [PRASTERONE SULFURIC ACID]
MRP4 (ABCC4) [8]
  activity at 5 µM: 34%

## CCCN(CCC)S(=O)(=O)c1ccc(C(=O)O)cc1 [PROBENECID]
[9]
  Activity: 52%

## C[C@H](CCC(=O)NCCS(=O)(=O)O)[C@H]1CC[C@H]2[C@@H]3[C@H](O)C[C@@H]4C[C@H](O)CC[C@]4(C)[C@H]3CC[C@]12C [TAUROCHENODEOXYCHOLATE]
MRP4 (ABCC4) [10]
  activity at 20 µM: 11%

## C[C@H](CCC(=O)NCCS(=O)(=O)O)[C@H]1CC[C@H]2[C@@H]3[C@@H](O)C[C@@H]4C[C@H](O)CC[C@]4(C)[C@H]3CC[C@]12C [TAURURSODIOL]
MRP4 (ABCC4) [11]
  activity at 20 µM: 26%

## C[C@H](CCC(=O)O)[C@H]1CC[C@H]2[C@@H]3[C@@H](O)C[C@@H]4C[C@H](O)CC[C@]4(C)[C@H]3CC[C@]12C [URSODIOL]
MRP4 (ABCC4) [12]
  activity at 20 µM: 18%
